This assay deals with T1, CXCR7 (Homo sapiens, UniProt P25106).
T1 construct: host or cells: CHO-K1 (PathHunter CXCR7 b-arrestin cell line, stably transfected)
T1 sequence (P25106 whole entry): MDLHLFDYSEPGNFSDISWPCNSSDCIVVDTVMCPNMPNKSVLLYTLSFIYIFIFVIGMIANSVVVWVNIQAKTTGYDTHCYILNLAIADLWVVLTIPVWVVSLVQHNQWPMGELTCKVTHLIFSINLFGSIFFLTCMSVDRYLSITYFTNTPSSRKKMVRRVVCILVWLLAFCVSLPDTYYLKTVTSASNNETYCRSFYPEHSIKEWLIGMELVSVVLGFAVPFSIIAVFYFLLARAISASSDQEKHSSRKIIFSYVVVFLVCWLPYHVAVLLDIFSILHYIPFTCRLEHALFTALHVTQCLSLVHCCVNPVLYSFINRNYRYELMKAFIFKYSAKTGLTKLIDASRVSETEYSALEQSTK
Nature of the assay: PathHunter CHO-K1 CXCR7 b-arrestin assay (agonistic activity). The settings on record: PathHunter CHO-K1 CXCR7 b-arrestin cell line, 90 minutes at 37° C. Format: cell-based. As for the experimental part: The […] receptor and CXCR7 agonistic activities of the compounds of formula (I) are determined in accordance with the following experimental method.
The assay is using the PathHunter™ CHO-K1 CXCR7 b-arrestin cell line from DiscoverX. The system is based on the Enzyme Fragment Complementation Technology. Two complementing fragments of the b-galactosidase enzyme are expressed within stably transfected cells. The larger portion of b-gal, termed EA for Enzyme Acceptor, is fused to the C-terminus of b-arrestin 2. The smaller fragment, termed ProLink™ tag, is fused to CXCR7 at the C-terminus. Upon activation, b-arrestin is recruited which forces the interaction of ProLink and EA, allowing complementation of the two fragments of b-gal and the formation of a functional enzyme which is capable of hydrolysing the substrate and generating a chemiluminescent signal.
CHO-K1 CXCR7 b-arrestin cells are detached from culture dishes with a cell dissociation buffer (Invitrogen, #13151-014) and collected in growing medium (F12HAMS 90% (v/v)/FCS 10% (v/v), Penicilin/streptomycin 1% (v/v)). 5000 cells per well (in 20 μl) are seeded in a 384 well plate (white-walled, clear bottom; BD Falcon #353274). The plate is incubated at 37° C./5% CO2 for 24 hours. Medium is then replaced by […] (Invitrogen #31985) for 3 to 4 hours. Test compounds are dissolved at 10 mM in DMSO and serially diluted in DMSO to 200× of the final concentration for dose response curves. Compounds are then diluted 1:33.3 in HBSS1X. 5 μl/well of HBSS1X/20 mM HEPES/0.2% BSA are added to the assay plate followed by addition of 5 μl/well of diluted compounds. CXCL12 (Peprotech #300-28A) may be used as a reference agonist. The plate is incubated for 90 minutes at 37° C. 12 μl of detection reagent (Path Hunter Detection Kit, DiscoveRx, #93-0001) is transferred to the assay plate and to the plate is incubated for 1 hour at room temperature. Luminescent signal is read in a microplate reader (FLUOstar Optima, bmg). The calculated EC50 values may fluctuate depending on the daily cellular assay performance. Fluctuations of this kind are known to those skilled in the art.
The compound `CC1CCC(NC(=O)C2CCN(Cc3cccc(NC(=O)c4cccc(C(F)(F)F)n4)c3)CC2)CC1` (stereo not drawn) [Example 2.083] yielded a concentration for a half-maximal effect (EC50) of 0.003 µM.
“rac-2-Methyl-pyrimidine-4-carboxylic acid {3-[1-(4-cyclohexylcarbamoyl-piperidin-1-yl)-ethyl]-phenyl}-amide [Example 1.197]” came in with an EC50 of 0.015 µM.
On to `COc1cncc(C(=O)Nc2cccc(CN3CCC(C(=O)NC4CCCCC4)CC3)c2)c1` [Example 4.012, N-[3-(4-Cyclohexylcarbamoyl-piperidin-1-ylmethyl)-phenyl]-5-methoxy-nicotinamide], for which the EC50 is 0.01 µM.
For `CN(C(=O)C1CCN(Cc2cccc(NC(=O)c3cccs3)c2)CC1)C1CCCCC1` [Example 2.077] the value was 0.087 µM; for `CC(C)(C)NC(=O)C1CCN(Cc2cc(NC(=O)c3ccc(F)cc3)cs2)CC1` [Example 3.009, 1-[4-(4-Fluoro-benzoylamino)-thiophen-2-ylmethyl]-piperidine-4-carboxylic acid tert-butylamide], 0.004 µM; for `CCC(C)NC(=O)C1CCCN(Cc2cccc(NC(=O)c3cccc(C(F)(F)F)n3)c2)CC1` (racemic) [Example 2.087], 0.006 µM.
The figure for `CC(C)CNC(=O)C1CCN(Cc2cccc(NC(=O)c3cccc(C(F)(F)F)n3)c2)CC1` [Example 2.071] is 0.002 µM; for `O=C(Nc1cccc(CN2CCC(C(=O)NCc3ccncc3)CC2)c1)c1ccc(Cl)cc1` [Example 2.021] it is 0.218 µM; for `CC(C)(NC(=O)C1CCN(Cc2cccc(NC(=O)c3ccc(Cl)cc3)c2)CC1)c1ccccc1` [Example 2.017] it is 0.219 µM.
Regarding `Cc1cncc(C(=O)Nc2cccc(CN3CCC(C(=O)NC4CCC4)CC3)c2)c1` [Example 2.041], a half-maximal effect (EC50) was put at 0.013 µM.
With `CC(C)(C)NC(=O)C1(C)CCN(Cc2cccc(NC(=O)c3cccc(C(F)(F)F)n3)c2)CC1` [Example 4.011, 6-Trifluoromethyl-pyridine-2-carboxylic acid [3-(4-tert-butylcarbamoyl-4-methyl-piperidin-1-ylmethyl)-phenyl]-amide], the response was half-maximal at 0.013 µM (EC50).
For `Cc1cncc(C(=O)Nc2cccc(CN3CCC(C(=O)N4CCCCCC4)CC3)c2)c1` [Example 2.048] the value was 0.019 µM; for `O=C(Nc1cccc(CN2CCC(C(=O)NC3CCC(O)CC3)CC2)c1)c1ccc(Cl)cc1` (stereo not drawn) [Example 2.011], 0.241 µM.
On to `Cc1cncc(C(=O)Nc2cccc(CN3CCC(C)(C(=O)NC4CCCCC4)CC3)c2)c1` [Example 4.003, N-[3-(4-Cyclohexylcarbamoyl-4-methyl-piperidin-1-ylmethyl)-phenyl]-5-methyl-nicotinamide], for which the EC50 is 0.197 µM.
For `O=C(Nc1cccc(CN2CCC(C(=O)NC3Cc4ccccc4C3)CC2)c1)c1ccc(Cl)cc1` [Example 2.033] the value was 0.009 µM; for `O=C(Nc1cccc(CN2CCC(C(=O)NC3(CO)CCCC3)CC2)c1)c1ccc(Cl)cc1` [Example 2.032], 0.005 µM; for `CCCNC(=O)C1CCN(Cc2cccc(NC(=O)c3cccc(C(F)(F)F)n3)c2)CC1` [Example 2.094], 0.001 µM.
For `Cc1cncc(C(=O)Nc2cccc(CN3CCC(C(=O)NC4CCCC4)CC3)c2)c1` [Example 2.042] the value was 0.005 µM; for `O=C(Nc1cccc(CN2CCC(C(=O)NC3CCCCC3)CC2)n1)c1ccc(F)cc1` [Example 3.003, 1-[6-(4-Fluoro-benzoylamino)-pyridin-2-ylmethyl]-piperidine-4-carboxylic acid cyclohexylamide], 0.167 µM; for `Cc1cncc(C(=O)Nc2cccc(CN3CCC(C(=O)NC(C)(C)C)CC3)c2)c1` [Example 2.039], 0.003 µM.
The figure for `COCCNC(=O)C1CCN(Cc2cccc(NC(=O)c3ccc(Cl)cc3)c2)CC1` [Example 2.005] is 0.005 µM.
Compound `O=C(Nc1cccc(CN2CCC(C(=O)N[C@H](CO)C3CCCCC3)CC2)c1)c1cccc(C(F)(F)F)n1` [Example 2.066] displayed an EC50 of 0.431 µM.
The figure for `CCCCCCN(C)C(=O)C1CCN(Cc2cccc(NC(=O)c3cccc(C(F)(F)F)n3)c2)CC1` [Example 2.079] is 0.226 µM; for `COc1ccccc1CNC(=O)C1CCN(Cc2cccc(NC(=O)c3ccc(Cl)cc3)c2)CC1` [Example 2.026] it is 0.015 µM.
`O=C(Nc1cccc(CN2CCC(C(=O)NC3CCC(F)(F)CC3)CC2)c1)c1ccc(Cl)cc1` [Example 2.014] yielded an EC50 of 0.002 µM.
For `O=C(Nc1cccc(CN2CCC(C(=O)NCc3ccccc3Cl)CC2)c1)c1ccc(Cl)cc1` [Example 2.025] the value was 0.017 µM.
For `Cc1cncc(C(=O)Nc2cccc(CN3CCC(C)(C(=O)NC(C)(C)C)CC3)c2)c1` [Example 4.004, N-[3-(4-tert-Butylcarbamoyl-4-methyl-piperidin-1-ylmethyl)-phenyl]-5-methyl-nicotinamide] the value was 0.059 µM; for `O=C(Nc1cccc(CN2CCCC(C(=O)NCC3CC3)CC2)c1)c1cccc(C(F)(F)F)n1` (racemic) [Example 2.089], 0.036 µM; for `Cc1cncc(C(=O)Nc2csc(CN3CCC(C(=O)NC(C)(C)C)CC3)c2)c1` [Example 3.013, N-[5-(4-tert-Butylcarbamoyl-piperidin-1-ylmethyl)-thiophen-3-yl]-5-methyl-nicotinamide], 0.013 µM.
In turn, `Cc1cncc(C(=O)Nc2ccc(F)c(CN3CCC(C(=O)NC(C)(C)C)CC3)c2)c1` [Example 4.019, N-[3-(4-tert-Butylcarbamoyl-piperidin-1-ylmethyl)-4-fluoro-phenyl]-5-methyl-nicotinamide] yielded an EC50 of 0.008 µM.
The figure for “5-Chloro-N-[4-chloro-3-(4-cyclopentylcarbamoyl-piperidin-1-ylmethyl)-phenyl]-nicotinamide [Example 1.227]” is 0.0006 µM.
On to `O=C(Nc1cccc(CN2CCC(C(=O)NC3CCCCC3)CC2)c1)c1cccc(C(F)(F)F)n1` [Example 1.002, 6-Trifluoromethyl-pyridine-2-carboxylic acid [3-(4-cyclohexylcarbamoyl-piperidin-1-ylmethyl)-phenyl]-amide], for which the EC50 was determined as 0.001 µM.
The figure for `O=C(Nc1cccc(CN2CCC(C(=O)NC3CC3)CC2)c1)c1ccc(Cl)cc1` [Example 2.006] is 0.002 µM; for `Cc1cncc(C(=O)Nc2cccc(CN3CCC(C(=O)N4CCCC4)CC3)c2)c1` [Example 2.047] it is 0.067 µM.
For `O=C(Nc1cccc(CN2CCC(C(=O)NCc3ccccc3)CC2)c1)c1cccs1` [Example 2.076] the value was 0.78 µM.
Regarding `CC(C)(C)C1CCC(NC(=O)C2CCN(Cc3cccc(NC(=O)c4ccc(Cl)cc4)c3)CC2)CC1` (stereo not drawn) [Example 2.012], the EC50 turned out to be 1.05 µM.
For `O=C(Nc1cccc(CN2CCC(C(=O)NCc3ccc(Cl)cc3)CC2)c1)c1ccc(Cl)cc1` [Example 2.029] the value was 0.433 µM.
For `O=C(Nc1ccnc(CN2CCC(C(=O)NC3CCCCC3)CC2)c1)c1ccc(Cl)cc1` [Example 3.007, 1-[4-(4-Chloro-benzoylamino)-pyridin-2-ylmethyl]-piperidine-4-carboxylic acid cyclohexylamide], the midpoint of the response, the EC50, lay at 0.028 µM.
On to “1-[3-(3-Fluoro-benzoylamino)-benzyl]-piperidine-4-carboxylic acid cyclohexylamide [Example 1.103]”, for which the EC50 worked out at 0.006 µM.
For `O=C(Nc1cccc(CN2CCC(C(=O)NC3CC4CCC3C4)CC2)c1)c1ccc(Cl)cc1` (racemic) [Example 2.008] the value was 0.006 µM.
On to `Cc1cncc(C(=O)Nc2cccc(CN3CCC(F)(C(=O)NC(C)(C)C)CC3)c2)c1` [Example 4.002, N-[3-(4-tert-Butylcarbamoyl-4-fluoro-piperidin-1-ylmethyl)-phenyl]-5-methyl-nicotinamide], for which the concentration for a half-maximal effect (EC50) came out at 0.016 µM.
For `O=C(Nc1cccc(CN2CCC(C(=O)NCc3ccccn3)CC2)c1)c1ccc(Cl)cc1` [Example 2.022] the value was 0.02 µM.
The compound `CC(NC(=O)C1CCN(Cc2cccc(NC(=O)c3ccc(Cl)cc3)c2)CC1)C1CCCCC1` (racemic) [Example 2.016] yielded an EC50 of 0.134 µM.
The figure for `CC(C)(C)NC(=O)C1CCN(Cc2cc(NC(=O)c3cccc(C(F)(F)F)n3)ncn2)CC1` [Example 5.001, 6-Trifluoromethyl-pyridine-2-carboxylic acid [6-(4-tert-butylcarbamoyl-piperidin-1-ylmethyl)-pyrimidin-4-yl]-amide] is 0.029 µM; for `CC(C)(C)NC(=O)C1CCN(Cc2csc(NC(=O)Cc3ccccc3Cl)c2)CC1` [Example 3.010, 1-{5-[2-(2-Chloro-phenyl)-acetylamino]-thiophen-3-ylmethyl}-piperidine-4-carboxylic acid tert-butylamide] it is 0.041 µM.

What is called EC50 is the concentration that produces a half-maximal response. A higher EC50 goes with a need for much substance.
